In US8039458B2, “HIV integrase inhibitors” (priority 2005, dated 2011):

What was measured:
[1] = test system: recombinant NL-Rluc virus; assay: Inhibition of HIV replication (NL-RLuc virus, Renilla luciferase); type: cell-based; details: Human immunodeficiency virus 1, read-out: antiviral actitively
[2] = target: T1, HIV-Integrase (Human immunodeficiency virus type 1 group M subtype B, UniProt P12497); assay: HIV-Integrase binding assay (competition with [3H]-compound I, SPA); details: competitive binding vs [3H]-compound I to purified integrase; Ki by Cheng and Prusoff; read-out: in vitro binding
T1 construct: Recombinant integrase (0.26 ng) was incubated with the beads
Protocol: HIV-Integrase Inhibition Activity. To evaluate in-vitro activity against HIV-integrase, 5 pmole of biotin labeled substrate DNA was bound to 100 μg of Streptavidin coated PVT SPA beads (Amersham Pharmacia Biotech). Recombinant integrase (0.26 ng) was incubated with the beads for 90 min at 37° C. Unbound enzyme was removed by washing the complex followed by addition of inhibitors and 0.1 fmol of P33 labeled target DNA. The reaction was stopped by adding EDTA to a final concentration of 10 mM. Samples were counted in TopCountNXT (Packard) and the CPM was used as a measure of integration. The reaction condition was as described in A. Engelman and R. Craigie, J. Virol. 69, 5908-5911 (1995). The sequences of substrate and target DNA were described in Nucleic Acid Research 22,1121-1122 (1994).
HIV-Integrase binding assay. In this assay competitive binding experiments with test compounds and a radiolabeled integrase inhibitor (compound I) are performed against purified integrase. SPA bead/DNA/enzyme complexes were prepared as for the integrase inhibition assay except, to each well, 0.69 μl of integrase enzyme ([…]) was used per 2 μl of LTR DNA-attached scintillation proximity beads (stock 50 mg/ml). Binding reactions were carried out in 96-well white polystyrene assay plates (Corning, #3600). The following was added sequentially to each well: 20 μl of water or 20 μl of human serum (Cellgro Cat# 35-060-CL), 5 μl of serially diluted compound (in 50% DMSO/50% integrase SPA buffer), 5 μl of [^3H]-compound I (6,000 cpm/μl in SPA buffer) and 20 μl of bead/DNA/enzyme complex. The plates were shaken for 2 hours and then allowed to sit at room temperature without shaking overnight. The [^3H]-compound I binding was measured using a Topcount scintillation counter. Cheng and Prusoff equations were used to convert the inhibition of compound 1 binding into the corresponding Ki value. Activity equal to A refers to a compound having Ki=0.001 to 0.003 μM while B and C denote compounds having Ki=0.003 to 0.05 μM and Ki≧0.050 μM respectively.

| SMILES | EC50 [1] [nM] | Ki [2] [nM] | melting point [°C] |
| --- | --- | --- | --- |
| Cc1ncnn1-c1cc(F)ccc1CNC(=O)c1nc2n(c(=O)c1O)CCOCC21CCC1 [Example 10, N-((4-fluoro-2-(5-methyl-1H-1,2,4-triazol-1-yl)phenyl)methyl)-3′-hydroxy-4′-oxo-6′,7′-dihydro-4′H-spiro[cyclobutane-1,10′-pyrimido[1,2-d][1,4]oxazepine]-2′-carboxamide] | 1 to 10 | 1 to 3 | – |
| Cc1n[nH]c(-c2cc(F)ccc2CNC(=O)c2nc3n(c(=O)c2O)CCOCC32CCOCC2)n1 [Example 42, N-((4-fluoro-2-(3-methyl-1H-1,2,4-triazol-5-yl)phenyl)methyl)-3′-hydroxy-4′-oxo-2,3,5,6,6′,7′-hexahydro-4′H-spiro[pyran-4,10′-pyrimido[1,2-d][1,4]oxazepine]-2′-carboxamide] | 1 to 10 | 1 to 3 | – |
| Cn1ncnc1-c1cc(F)ccc1CNC(=O)c1nc2n(c(=O)c1O)CCOCC21CCOCC1 [Example 40, N-((4-fluoro-2-(1-methyl-1H-1,2,4-triazol-5-yl)phenyl)methyl)-3′-hydroxy-4′-oxo-2,3,5,6,6′,7′-hexahydro-4′H-spiro[pyran-4,10′-pyrimido[1,2-d][1,4]oxazepine]-2′-carboxamide] | 1 to 10 | 3 to 50 | – |
| CC1(C)COCCn2c1nc(C(=O)NCc1ccc(F)cc1N1CCCC1=O)c(O)c2=O [Example 16, N-((4-fluoro-2-(2-oxo-1-pyrrolidinyl)phenyl)methyl)-3-hydroxy-10,10-dimethyl-4-oxo-6,7,9,10-tetrahydro-4H-pyrimido[1,2-d][1,4]oxazepine-2-carboxamide] | 1 to 10 | 1 to 3 | – |
| Cc1nnn(-c2cc(F)ccc2CNC(=O)c2nc3n(c(=O)c2O)CCOCC3(C)C)c1C [Example 18, N-(2-(4,5-Dimethyl-1H-1,2,3-triazol-1-yl)-4-fluorobenzyl)-3-hydroxy-10,10-dimethyl-4-oxo-6,7,9,10-tetrahydro-4H-pyrimido[1,2-d][1,4]oxazepine-2-carboxamide] | 1 to 10 | 3 to 50 | – |
| Cc1ncnn1-c1cc(F)ccc1CNC(=O)c1nc2n(c(=O)c1O)CCOCC21CCCC1 [Example 23, N-((4-fluoro-2-(5-methyl-1H-1,2,4-triazol-1-yl)phenyl)methyl)-3′-hydroxy-4′-oxo-6′,7′-dihydro-4′H-spiro[cyclopentane-1,10′-pyrimido[1,2-d][1,4]oxazepine]-2′-carboxamide] | 1 to 10 | 1 to 3 | – |
| Cc1ncnn1-c1cc(F)ccc1CNC(=O)c1nc2n(c(=O)c1O)CCOCC2(C)C [Example 4, N-((4-Fluoro-2-(5-methyl-1H-1,2,4-triazol-1-yl)phenyl)methyl)-3-hydroxy-10,10-dimethyl-4-oxo-6,7,9,10-tetrahydro-4H-pyrimido[1,2-d][1,4]oxazepine-2-carboxamide] | 1 to 10 | 3 to 50 | – |
| Cn1cnn(-c2cc(F)ccc2CNC(=O)c2nc3n(c(=O)c2O)CCOCC32CCOCC2)c1=O [Example 27, N-(4-Fluoro-2-(4-methyl-5-oxo-4,5-dihydro-1H-1,2,4-triazol-1-yl)benzyl)-3′-hydroxy-4′-oxo-2,3,4′,5,6,6′,7′,9′-octahydrospiro[pyran-4,10′-pyrimido[1,2-d][1,4]oxazepine]-2′-carboxamide] | 1 to 10 | 3 to 50 | – |
| Cc1nn(-c2cc(F)ccc2CNC(=O)c2nc3n(c(=O)c2O)CCOCC32CCOCC2)c(=O)n1C [Example 28, N-(2-(3,4-dimethyl-5-oxo-4,5-dihydro-1H-1,2,4-triazol-1-yl)-4-fluorobenzyl)-3′-hydroxy-4′-oxo-2,3,4′,5,6,6′,7′,9′-octahydrospiro[pyran-4,10′-pyrimido[1,2-d][1,4]oxazepine]-2′-carboxamide] | 1 to 10 | 3 to 50 | – |
| O=C(NCc1ccc(F)cc1)c1nc2n(c(=O)c1O)CCOCC2 [Example 31, N-((4-fluorophenyl)methyl)-3-hydroxy-4-oxo-6,7,9,10-tetrahydro-4H-pyrimido[1,2-d][1,4]oxazepine-2-carboxamide] | > 50 | 3 to 50 | 197 to 199 |
| Cc1ncnn1-c1cc(F)ccc1CNC(=O)c1nc2n(c(=O)c1O)CCOCC21CCOCC1 [Example 36, N-((4-fluoro-2-(5-methyl-1H-1,2,4-triazol-1-yl)phenyl)methyl)-3′-hydroxy-4′-oxo-2,3,5,6,6′,7′-hexahydro-4′H-spiro[pyran-4,10′-pyrimido[1,2-d][1,4]oxazepine]-2′-carboxamide] | 1 to 10 | 3 to 50 | – |
| CN1CCN(c2cc(F)ccc2CNC(=O)c2nc3n(c(=O)c2O)CCOCC32CCOCC2)C1=O [Example 38, N-((4-fluoro-2-(3-methyl-2-oxo-1-imidazolidinyl)phenyl)methyl)-3′-hydroxy-4′-oxo-2,3,5,6,6′,7′-hexahydro-4′H-spiro[pyran-4,10′-pyrimido[1,2-d][1,4]oxazepine]-2′-carboxamide] | 1 to 10 | 3 to 50 | – |
| CC1(C)COCCn2c1nc(C(=O)NCc1ccc(F)cc1-n1cncn1)c(O)c2=O [Example 2, N-((4-Fluoro-2-(1H-1,2,4-triazol-1-yl)phenyl)methyl)-3-hydroxy-10,10-dimethyl-4-oxo-6,7,9,10-tetrahydro-4H-pyrimido[1,2-d][1,4]oxazepine-2-carboxamide] | 1 to 10 | 3 to 50 | – |
| O=C(NCc1ccc(F)cc1-n1cncn1)c1nc2n(c(=O)c1O)CCOCC21CCOCC1 [Example 34, N-((4-fluoro-2-(1H-1,2,4-triazol-1-yl)phenyl)methyl)-3′-hydroxy-4′-oxo-2,3,5,6,6′,7′-hexahydro-4′H-spiro[pyran-4,10′-pyrimido[1,2-d][1,4]oxazepine]-2′-carboxamide] | 1 to 10 | 1 to 3 | – |
| Cc1ncn(-c2cc(F)ccc2CNC(=O)c2nc3n(c(=O)c2O)CCOCC3(C)C)n1 [Example 6, N-((4-fluoro-2-(3-methyl-1H-1,2,4-triazol-1-yl)phenyl)methyl)-3-hydroxy-10,10-dimethyl-4-oxo-6,7,9,10-tetrahydro-4H-pyrimido[1,2-d][1,4]oxazepine-2-carboxamide] | 1 to 10 | 3 to 50 | – |
| CC1(C)COCCn2c1nc(C(=O)NCc1ccc(F)cc1-n1ncnc1-c1ccccc1)c(O)c2=O [Example 20, N-((4-fluoro-2-(5-phenyl-1H-1,2,4-triazol-1-yl)phenyl)methyl)-3-hydroxy-10,10-dimethyl-4-oxo-6,7,9,10-tetrahydro-4H-pyrimido[1,2-d][1,4]oxazepine-2-carboxamide] | > 50 | ≥ 50 | – |
| O=C(NCc1ccc(F)cc1-n1ncnc1CF)c1nc2n(c(=O)c1O)CCOCC21CCOCC1 [Example 39, N-((4-fluoro-2-(5-(fluoromethyl)-1H-1,2,4-triazol-1-yl)phenyl)methyl)-3′-hydroxy-4′-oxo-2,3,5,6,6′,7′-hexahydro-4′H-spiro[pyran-4,10′-pyrimido[1,2-d][1,4]oxazepine]-2′-carboxamide] | 1 to 10 | 3 to 50 | – |
| Cc1nc(C)n(-c2cc(F)ccc2CNC(=O)c2nc3n(c(=O)c2O)CCOCC3(C)C)n1 [Example 5, N-((2-(3,5-dimethyl-1H-1,2,4-triazol-1-yl)-4-fluorophenyl)methyl)-3-hydroxy-10,10-dimethyl-4-oxo-6,7,9,10-tetrahydro-4H-pyrimido[1,2-d][1,4]oxazepine-2-carboxamide] | 10 to 50 | 3 to 50 | – |
